The numbers were not newly measured in patent publication US7374751B1, “QS-21 and IL-12 as an adjuvant combination” (Wyeth Holdings Corporation, priority 2001, dated 2008), which cites them from elsewhere.

For this data set the following is noted: clinical data, F/QS-21 formulation, immediately after injection.

For QS-21, the local acute toxicity entry is reported as “associated with local acute toxicity immediately after injection”.
